“And” between values parts separate entries of the source, which are not always exact repeats. Identical values can stand only once.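 How tested: cells in 96-well plates exposed to compound for 48 hours at five concentrations. GI50 = concentration required for 50% inhibition of growth. TGI: total growth inhibition.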
What was measured:
Test in all cases: inhibition of tumour cell growth, NCI panel, 48 h
MDA-MB-435 = test system: MDA-MB-435
OVCAR-5 ovarian = test system: OVCAR-5 ovarian
OVCAR-8 ovarian = test system: OVCAR-8 ovarian
SW-620 colon = test system: SW-620 colon
HOP-62 NSCLC = test system: HOP-62 NSCLC
SF-295 CNS = test system: SF-295 CNS
UACC-62 melanoma = test system: UACC-62 melanoma
NCI-H23 lung = test system: NCI-H23 lung
SF-268 CNS = test system: SF-268 CNS
OVCAR-4 ovarian = test system: OVCAR-4 ovarian

Row | SMILES | GI50 (MDA-MB-435) | TGI (MDA-MB-435) | TGI (OVCAR-5 ovarian) | GI50 (OVCAR-8 ovarian) | TGI (OVCAR-8 ovarian) | GI50 (SW-620 colon) | TGI (SW-620 colon) | GI50 (HOP-62 NSCLC) | TGI (HOP-62 NSCLC) | GI50 (SF-295 CNS) | TGI (SF-295 CNS) | GI50 (UACC-62 melanoma) | TGI (UACC-62 melanoma) | GI50 (NCI-H23 lung) | TGI (NCI-H23 lung) | GI50 (SF-268 CNS) | TGI (SF-268 CNS) | TGI (OVCAR-4 ovarian) | GI50 (OVCAR-5 ovarian) | GI50 (OVCAR-4 ovarian)
1 | Nc1nc(N)c2nc(CNc3ccc(C(=O)CC(CCC(=O)O)C(=O)O)cc3)cnc2n1 (configuration not stated) | 0.137 µM | > 100 µM | > 100 µM | 0.166 µM | > 100 µM | 0.0332 µM | > 100 µM | 0.127 µM | > 100 µM | 190 nM | > 100 µM | 0.374 µM | > 100 µM | 0.441 µM | > 100 µM | 0.197 µM | > 100 µM | > 100 µM |  | 
2 | COc1ccc(-c2coc3ncnc(N)c23)cc1 | > 25 µM | > 25 µM | > 25 µM | > 25 µM | > 25 µM | > 25 µM | > 25 µM | > 25 µM | > 25 µM | > 25000 nM | > 25 µM | > 25 µM | > 25 µM | > 25 µM | > 25 µM | > 25 µM | > 25 µM | > 25 µM | > 25 µM | > 25000 nM
3 | NC1=NC(=O)N2CC12 (configuration not stated) | 90.9 µM and 78 µM | 194 µM | 528 µM | 141 µM | > 100 µM and 5000 µM | 48.2 µM and 58.4 µM | > 100 µM and 143 µM | 570 µM | > 100 µM and 1250 µM | 68600 nM and 73100 nM | > 100 µM and 219 µM | 130 µM | > 100 µM and 408 µM | 737 µM | > 100 µM and 2640 µM |  | > 100 µM and 209 µM | > 100 µM and 779 µM | 170 µM | 198000 nM
4 | COc1cc(N2CCC(N3CCN(C)CC3)CC2)ccc1Nc1ncc(Cl)c(Nc2ccccc2P(C)(C)=O)n1 | 2.94 µM | > 100 µM | > 100 µM | 5.05 µM | > 100 µM | 1.71 µM | 19.6 µM | 0.797 µM | > 32 µM | 2850 nM | > 100 µM | 2.94 µM | > 72.2 µM | 1.62 µM | > 100 µM | 1.34 µM | 14 µM | > 47.6 µM | 0.379 µM | 1300 nM
5 | O=S(=O)(/C=C/C=C/S(=O)(=O)c1ccccc1)c1ccccc1 | 1.04 µM | 4.21 µM and 4.19 µM | 5.28 µM | 2.61 µM | 2.12 µM and 5.95 µM | 0.316 µM | 0.433 µM and 2.26 µM | 8.81 µM | 20.9 µM |  | 22.2 µM | 0.352 µM | 2.43 µM and 1.88 µM | 1.06 µM | 3.14 µM and 2.62 µM | 2.51 µM | 8.06 µM and 5.4 µM | 3.28 µM and 3.18 µM | 1.9 µM | 
6 | Cc1cc(Cl)ccc1Nc1sc(C(=O)c2cc3cc(Cl)ccc3o2)c(N)c1C#N |  | > 100 µM | > 100 µM |  | > 87.2 µM |  | > 69.9 µM |  | > 37.6 µM |  | > 100 µM |  | > 100 µM |  | 35.5 µM |  | 26.9 µM | 25.1 µM |  | 
7 | COc1ccc(C(=O)/C=C/c2cc3ccccc3[nH]c2=O)cc1 | 21.2 µM | > 55.8 µM | > 56.8 µM | 21.7 µM | > 100 µM | 18.4 µM | 33.2 µM | 20.5 µM | 42.6 µM | 20300 nM | > 57.1 µM | 24.4 µM | > 57.8 µM | 19.7 µM | > 53 µM | 18.1 µM | 43 µM | > 100 µM | 21.9 µM | 19500 nM
8 | COc1cccc(-c2nn(-c3ccccc3)cc2-c2ccnc(NCCNS(=O)(=O)c3ccc(C(F)(F)F)cc3)c2)c1 | 3.23 µM | 17.5 µM | > 100 µM | 4.07 µM | 46.2 µM | 4.16 µM | > 100 µM | 4.16 µM | 43.6 µM | 2910 nM | 8.67 µM | 3.22 µM | 35 µM | 3.23 µM | > 100 µM | 3.54 µM | > 100 µM | > 100 µM | 4.98 µM | 2940 nM
9 | CCCCCCN(CCCCCC)C(=N)c1ccnc2ccccc12 | 3.21 µM | 14.7 µM | 21.7 µM | 10.4 µM | 24.1 µM | 3.27 µM | 17.8 µM | 10.8 µM | 24.2 µM | 1390 nM | 13.4 µM | 4.88 µM | 19.6 µM | 6.9 µM | 23.4 µM | 13 µM | 26.5 µM | 19.6 µM | 9.64 µM | 5980 nM
10 | O=c1ncc(-c2ccc(C(F)(F)F)cc2)c(NC2CCCCCC2)[nH]1 | 15.6 µM | 34.4 µM | 48.3 µM | 18.7 µM | 40.4 µM | 23.9 µM | 68.7 µM | 20.3 µM | 36.8 µM | 17000 nM | 34 µM | 13.8 µM | 29.3 µM | 29.4 µM | 90.9 µM | 18.4 µM | 36.5 µM | 77.5 µM | 22.9 µM | 21300 nM
11 | COc1ccc(OC)c(/C=C/c2nnc(Nc3ccc(Cl)cc3)o2)c1 | 37 µM | > 100 µM | > 100 µM | 4.91 µM | 21 µM | 18.3 µM | > 100 µM | 2.71 µM | 7.68 µM | 6150 nM | 64.5 µM | 16.2 µM | > 100 µM | 21.7 µM | > 100 µM | 7.6 µM | 37.9 µM | 6.76 µM | 32.5 µM | 2440 nM
12 | CCN(Cc1ccc(F)cc1)c1ccc(CO)c(Cl)c1 | 19.9 µM | 73.2 µM | 0.525 µM | 9.24 µM | 43.5 µM | 0.838 µM | > 41 µM | 0.576 µM | 25.1 µM | 714 nM | 14 µM | 0.0693 µM | 0.522 µM | 5.79 µM | 49.1 µM | 19.8 µM | > 55.7 µM | 7.48 µM | 0.103 µM | 298 nM
13 | C[C@H]1CCC/C=C/[C@@H]2C[C@H](O)C[C@H]2[C@H](O)[C@H](S(=O)c2ccc(O)cc2)CC(=O)O1 (some centres not stated) | 0.0417 µM |  |  | < 0.0167 µM | 0.238 µM | 0.0506 µM | > 100 µM | 0.0855 µM | > 65.6 µM | 69.8 nM | > 100 µM | 0.0349 µM | > 100 µM | 0.0273 µM | 0.143 µM |  | > 100 µM | 0.978 µM | 0.0613 µM | 23.1 nM

Source: PubChem BioAssay (NCI)
